Entries after “also recorded” stand apart in the source; their conditions may differ.
Assays:
LC3 = test: Autophagy activity in cultured cells by immunoblotting using LC3 as a marker; type: cell-based, human; conditions: HeLa
Experimental: In order to evaluate the autophagy activity efficacy by the compounds (Examples 1-19), HeLa cell line, which is a cell line derived from a cervical cancer patient, was cultured using a DMEM medium containing 10% FBS and 1% streptomycin/penicillin in an incubator with 5% carbon dioxide. As representative compounds among the present compounds, YOK-1107, YOK-4404 and YOK-1104 were selected. In order to measure autophagy activity according to the treatment with these selected representative compounds, the respective cells were dispensed into 6 well plates. Additional cultures were performed […] so that the cells were completely attached to the surface of the plate. To find the concentration at which the respective compounds could increase the phenomenon of autophagy, the test compounds were diluted at 1, 2, 5, 10 and 20 μM and treated. After treatment with the respective compounds, the cells were cultured again in a cell incubator for 24 hours, and then the cells were collected. To extract proteins from the collected cells, 100 ul of lysis buffer (20 mM Tris (pH 7.4), 150 mM NaCl, 1% Triton X-100, 2 mM NaF, 2 mM EDTA, 2 mM beta-glycerophosphate, 5 mM sodium orthovanadate, 1 mM PMSF, leupeptin, aprotinin) was injected into each sample, and cells were lysed. Based on the measured total protein concentration, a sample buffer was added to each sample and allowed to react at 100° C. for 5 minutes. 5 ul was taken from the samples after the reaction, and dispensed into each well of acrylamide gel, and then immunoblotting was performed.
In order to investigate the autophagy activity efficacy by the compounds (Examples 1-19), immunoblotting was performed in the same manner as in Experimental Example 2 using LC3 as a marker. As for the difference, in order to evaluate the treatment time required for activation and the activity retention time, as the representative compounds selected among the present compounds, 5 μM of YOK-1107, YOK-1204, YOK-1304, YOK-2204, YOK-3304, […] treated for 1, 3, 6, 12, 24, 48 hours. On the other hand, as the representative compounds selected among the compounds of the present invention, […] YOK-1107, YOK-1109, YOK-2207, YOK-2209, YT-4-1, YT-4-2, YT-6-1, YT-6-2, YT-6-8, YT-6-7, YT-9-1, YT-9-2 were treated for 24 hours.
In order to investigate the autophagy activity efficacy of control compounds, immunoblotting was performed in the same manner as in Experimental Example 2 by using LC3 as a marker. As the control compounds, compounds having the following structure were used.

p62 and LC3 = test: Autophagy activity in cultured cells by immunofluorescence staining and confocal microscopy (p62 and LC3 puncta); type: cell-based, human; conditions: for p62 activation/oligomerization, delivery to autophagosome and autophagy activity (p62 and LC3 puncta, co-existence): HeLa, 5 uM, 24 hours, FIGS. 6a and 6b; for p62 activation/oligomerization, delivery to autophagosome and autophagy activity (p62 and LC3 puncta), control compounds: different concentrations, FIG. 7
Experimental: In order to confirm the p62 protein activity and the activity level of autophagy phenomenon by the compounds (Examples 1-19), immunofluorescence staining was performed using p62 and LC3 as markers. In order to confirm the p62 activity and the activity level of autophagy phenomenon by new p62 ligands and isomers thereof in cultured cells, HeLa cell line, which is a cell line derived from cervical cancer patient, was treated with the novel p62 ligand compounds (YOK-1106, YOK-1204, YOK-1504, YOK-2204, YOK-3304, YOK-4404, YOK-1107, YOK-1109, YOK-2207, YOK-2209, YT-4-1, YT-4-2, YT-6-1, YT-9-1 and YT-9-2) and cultured. Thereafter, as markers of the autophagy phenomenon, the expression level and location of LC3 puncta and the local co-existence with p62 puncta were observed.
For immunofluorescence staining, a cover glass was placed on a 24-well plate, cells were dispensed, cultured for 24 hours, and then treated with 5 uM of the novel p62 ligands according to the present invention. For the action of the compounds, additional cultures were performed for 24 hours, and then the medium was removed. Cells were fixed using formaldehyde at room temperature. In order to prevent non-specific staining, the cells were allowed to react with a blocking solution at room temperature for 1 hour, and then treated with LC3 antibody diluted at a certain ratio using the blocking solution, and allowed to reacted at room temperature for 1 hour. The antibody-treated cells were washed three times with PBS, and goat-derived secondary antibody was diluted at a certain ratio using the blocking solution, and then allowed to react at room temperature for 30 minutes. The cells were washed again with PBS three times, and for intracellular nuclear staining, the expression level, intracellular puncta formation and intracellular coexistence level of p62 and LC3 were observed through a confocal microscopy after DAPI staining.
In order to confirm p62 protein activity and the activity level of autophagy phenomenon of control compounds (YOK-A-1104, YOK-G-1104, YTK-1005, YTK-1105-1), immunofluorescence staining was performed in the same manner as in Experimental Example 4 by using p62 and LC3 as markers. YOK-A-1104 and YOK-G-1104 are compounds having the following structures.
The compounds were treated at different concentrations, and intracellular puncta of p62 or LC3, that is, the degree to which autophagosome was formed and p62 was delivered was observed by a confocal microscopy.

p62 protein = target: T1, p62 protein (Homo sapiens, UniProt Q13501); test: Oligomerization activity of p62 protein in cultured cells by immunoblotting; type: cell-based; conditions: HEK293 cell lysate treated with test compounds at room temperature for 2 hours; immunoblot, FIG. 2
T1 construct: endogenous in cells; host or cells: HEK293 (cell lysate treated with compounds)
Description: In order to evaluate the p62 protein oligomerization activity efficacy by the compounds (Examples 1-19), HEK293 cell line, which is human embryonic kidney-derived cell, was collected. As representative compounds among the present compounds, YOK-1104, YOK-2204, YOK-3304, YOK-1204, YOK-4404, YOK-1107, YOK-1109, YOK-2207, YOK-2209, YT-4-1, YT-4-2, YT-6-1, YT-6-2, YT-6-7, YT-6-8, YT-9-1, YT-9-2 were selected. In order to measure intracellular p62 protein activation and oligomerization according to the treatment with these selected representative compounds, the respective cells were dispensed into a pi dish. The cells were collected after further culturing for 24 hours so that the cells were completely attached to the surface of the plate. 100 ul of lysis buffer (20 mM Tris, pH 7.4), 150 mM NaCl, 1% Triton X-100, 2 mM NaF, 2 mM EDTA, 2 mM beta-glycerophosphate, 5 mM sodium orthovanadate, 1 mM PMSF, leupeptin, aprotinin) were injected into each sample and the cells were lysed. Based on the measured total protein concentration, each sample was treated with test compounds at room temperature for 2 hours, and then a sample buffer was added and allowed to react at 95° C. for 10 minutes. 25 ul was taken from the samples after the reaction, and dispensed into each well of acrylamide gel, and then immunoblotting was performed.

[1] = 5 μM, treated for 1, 3, 6, 12, 24, 48 hours, FIG. 4
[2] = treated for 24 hours (concentration not given), FIG. 4

T1 sequence (Q13501 whole entry): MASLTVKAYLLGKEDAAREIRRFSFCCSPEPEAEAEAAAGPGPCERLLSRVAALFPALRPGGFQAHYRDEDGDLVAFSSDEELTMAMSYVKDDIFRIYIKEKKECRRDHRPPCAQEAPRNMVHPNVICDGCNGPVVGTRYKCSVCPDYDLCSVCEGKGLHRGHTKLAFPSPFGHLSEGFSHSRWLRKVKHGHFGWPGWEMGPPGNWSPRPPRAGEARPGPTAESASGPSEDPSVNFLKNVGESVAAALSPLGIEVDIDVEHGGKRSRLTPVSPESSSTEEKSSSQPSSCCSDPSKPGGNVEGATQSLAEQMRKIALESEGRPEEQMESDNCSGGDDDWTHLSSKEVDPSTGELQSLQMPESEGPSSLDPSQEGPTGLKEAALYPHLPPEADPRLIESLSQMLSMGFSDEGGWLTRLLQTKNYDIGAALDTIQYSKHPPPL

Compound | autophagy activity (level of LC3) (LC3; [1]) | p62 activation/oligomerization, delivery to autophagosome and autophagy activity (p62 and LC3 puncta, co-existence) (p62 and LC3) | p62 protein oligomerization activity (p62 monomer, oligomers and high-molecular aggregates) (p62 protein) | p62 activation/oligomerization, delivery to autophagosome and autophagy activity (p62 and LC3 puncta), control compounds (p62 and LC3) | also measured
OCCNC[C@@H](O)COc1ccc(OCc2ccccc2)c(OCc2ccccc2)c1 [YOK-1106] | increasing the autophagy activity | delivering them to autophagosome and simultaneously increasing autophagy activity | – | – | –
CC(C)NC[C@@H](O)COc1ccc(OCc2ccccc2)c(OCCc2ccccc2)c1 [YOK-1204, (R)-1-(4-(benzyloxy)-3-phenethoxyphenoxy)-3-(isopropylamino)propan-2-ol] | gradually increased; also recorded: increasing the autophagy activity | delivering them to autophagosome and simultaneously increasing autophagy activity | increasing the p62 protein oligomerization activity | – | –
CC(C)NC[C@@H](O)COc1ccc(OCCc2ccccc2)c(OCCc2ccccc2)c1 [YOK-2204, (R)-1-(3,4-diphenethoxyphenoxy)-3-(isopropylamino)propan-2-ol] | gradually increased; also recorded: increasing the autophagy activity | delivering them to autophagosome and simultaneously increasing autophagy activity | increasing the p62 protein oligomerization activity | – | –
CC(C)NC[C@@H](O)COc1ccc(OCCCc2ccccc2)c(OCCCc2ccccc2)c1 [YOK-3304, (R)-1-(3,4-bis(3-phenylpropoxy)phenoxy)-3-(isopropylamino)propan-2-ol] | gradually increased | delivering them to autophagosome and simultaneously increasing autophagy activity | increasing the p62 protein oligomerization activity | – | –
CC(C)NC[C@@H](O)COc1ccc(OCCCCc2ccccc2)c(OCCCCc2ccccc2)c1 [YOK-4404, (R)-1-(3,4-bis(4-phenylbutoxy)phenoxy)-3-(isopropylamino)propan-2-ol] | increasing the autophagy activity | delivering them to autophagosome and simultaneously increasing autophagy activity | increasing the p62 protein oligomerization activity | – | autophagy activity (level of LC3) (LC3; 1, 2, 5, 10 and 20 μM, 24 hours, FIG. 3): increasing the autophagy activity
CCOC(=O)C(C)NC[C@@H](O)COc1ccc(OCc2ccccc2)c(OCc2ccccc2)c1 (stereo partly drawn) [YOK-A-1104, Ethyl (R)-(3-(3,4-bis(benzyloxy)phenoxy)-2-hydroxypropyl)alanineate, reference compound] | – | – | – | delivering them to autophagosome and simultaneously increasing autophagy activity | –
COC(=O)CNC[C@@H](O)COc1ccc(OCc2ccccc2)c(OCc2ccccc2)c1 [YOK-G-1104, Methyl (R)-(3-(3,4-bis(benzyloxy)phenoxy)-2-hydroxypropyl)glycineate, reference compound] | – | – | – | delivering them to autophagosome and simultaneously increasing autophagy activity | –
OCCNC[C@@H](O)COc1cccc(OCc2ccc(F)cc2)c1 [YT-6-8, (R)-1-(3-((4-fluorobenzyl)oxy)phenoxy)-3-((2-hydroxyethyl)amino)propan-2-ol] | – | – | increasing the p62 protein oligomerization activity | – | autophagy activity (level of LC3) (LC3; [2]): gradually increased
N=C(N)NCCNC[C@@H](O)COc1ccc(OCc2ccc(Cl)cc2)c(OCc2ccc(Cl)cc2)c1 [YT-9-1] | – | – | increasing the p62 protein oligomerization activity | – | autophagy activity (level of LC3) (LC3; [2]): gradually increased
N=C(N)NCCNC[C@@H](O)COc1ccc(OCc2ccc(F)cc2)c(OCc2ccc(F)cc2)c1 [YT-9-2] | – | – | increasing the p62 protein oligomerization activity | – | autophagy activity (level of LC3) (LC3; [2]): gradually increased
OCCNCc1ccc(OCc2ccccc2)c(O)c1 [YTK-1005, reference compound] | – | – | – | delivering them to autophagosome and simultaneously increasing autophagy activity | –
OCCCCc1ccc(OCc2ccccc2)c(OCc2ccccc2)c1 [YTK-1105-1, 4-(3,4-bis(benzyloxy)phenyl)butan-1-ol, reference compound] | – | – | – | delivering them to autophagosome and simultaneously increasing autophagy activity | autophagy activity (level of LC3), control compounds (LC3; different concentrations and different times, FIG. 5): do not increase autophagy activity

Source: patent US11981618B2, “P62 ligand compound, and composition for preventing, ameliorating or treating proteinopathies comprising the same” (AUTOTAC INC., priority 2018, dated 2024)
